This note sets out measurements from patent publication US11427548B2 (Arvinas Operations, Inc., priority 2015, dated 2022).

The test deals with T1, Androgen Receptor (Homo sapiens, UniProt P10275).
T1 construct: endogenous in cells; host or cells: VCaP cells
T1 sequence (P10275 1-920): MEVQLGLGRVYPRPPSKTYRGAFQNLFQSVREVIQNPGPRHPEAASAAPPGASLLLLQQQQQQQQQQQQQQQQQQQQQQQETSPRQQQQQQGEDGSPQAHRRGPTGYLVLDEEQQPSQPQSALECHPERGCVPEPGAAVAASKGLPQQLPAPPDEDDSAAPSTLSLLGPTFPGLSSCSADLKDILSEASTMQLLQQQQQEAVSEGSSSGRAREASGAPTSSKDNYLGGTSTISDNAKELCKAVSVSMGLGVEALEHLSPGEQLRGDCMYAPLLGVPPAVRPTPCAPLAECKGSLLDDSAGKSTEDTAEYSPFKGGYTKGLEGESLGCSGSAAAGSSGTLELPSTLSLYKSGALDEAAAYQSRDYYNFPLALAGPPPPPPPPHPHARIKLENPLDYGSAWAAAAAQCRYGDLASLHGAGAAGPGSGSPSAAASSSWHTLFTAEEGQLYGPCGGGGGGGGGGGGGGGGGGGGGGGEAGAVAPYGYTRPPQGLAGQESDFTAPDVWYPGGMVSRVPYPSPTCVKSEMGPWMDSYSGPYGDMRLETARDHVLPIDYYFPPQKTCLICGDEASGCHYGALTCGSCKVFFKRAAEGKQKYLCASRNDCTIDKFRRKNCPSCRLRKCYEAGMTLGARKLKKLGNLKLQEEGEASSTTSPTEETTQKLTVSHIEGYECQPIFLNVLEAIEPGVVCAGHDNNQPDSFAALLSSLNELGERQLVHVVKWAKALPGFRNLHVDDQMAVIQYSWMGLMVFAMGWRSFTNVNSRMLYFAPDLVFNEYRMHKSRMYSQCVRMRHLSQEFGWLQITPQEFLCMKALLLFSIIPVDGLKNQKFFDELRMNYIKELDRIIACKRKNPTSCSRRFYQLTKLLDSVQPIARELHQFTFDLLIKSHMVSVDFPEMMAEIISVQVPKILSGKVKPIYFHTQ
Kind of test: Androgen Receptor ELISA assay (PathScan AR ELISA) in VCaP cells: AR degradation, Dmax and DC50. It counts as cell-based. The method, boiled down:
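VCaP cells in phenol red-free RPMI with 5% charcoal-stripped FBS were grown at least 3 days, then given compound as 7 half-log doses in 0.1% DMSO with 0.1 nM R1881 for 24 h. Lysates went into a sandwich AR ELISA with TMB read at 450 nm.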
For orientation: In an ELISA, binding on a coated surface is turned into a signal by an enzyme label.

Setting [1] is: read-out: VCaP DC50; VCaP cells; Table 35.
Setting [2] is: VCaP cells; Table 35; read-out: VCaP DC50.
The mark [3] stands for this setting: VCaP, VCaP cells; Table 35; read-out: VCaP Dmax (%).

Structures are written as SMILES. Like-named read-outs stand apart in the source and are kept apart here.

Regarding `Cc1ncsc1-c1ccc([C@H](C)NC(=O)[C@@H]2C[C@@H](O)CN2C(=O)[C@H](C(C)C)n2cc(Oc3cccc(OCCCCCOc4ccc(N5C(=S)N(c6ccc(C#N)c(C(F)(F)F)c6)C(=O)C5(C)C)cc4)c3)cn2)nc1` [Example 426], where the note is “VCaP, read-out: VCaP Dmax (%)”, the Dmax – broadly, the greatest extent of degradation seen – is under 25%. Further, under setting [1], the DC50 (as a rule, the concentration giving 50% degradation) was over 501 nM. For `Cc1ncsc1-c1ccc([C@H](C)NC(=O)[C@@H]2C[C@@H](O)CN2C(=O)[C@@H](C(C)C)n2cc(OCCCOCCCCCOc3ccc(N4C(=S)N(c5ccc(C#N)c(C(F)(F)F)c5)C(=O)C4(C)C)cc3)cn2)nc1` [Example 427] the same measures were under 25% and over 501 nM. For `Cc1ncsc1-c1ccc([C@H](C)NC(=O)[C@@H]2C[C@@H](O)CN2C(=O)[C@H](C(C)C)n2cc(OCCCOCCCCCOc3ccc(N4C(=S)N(c5ccc(C#N)c(C(F)(F)F)c5)C(=O)C4(C)C)cc3)cn2)nc1` [Example 428] the same measures were under 25% and over 501 nM.

Take `Cc1ncsc1-c1ccc([C@H](C)NC(=O)[C@@H]2C[C@@H](O)CN2C(=O)[C@@H](NC(=O)COc2ccc(OC3CCN(c4ccc(N5C(=S)N(c6ccc(C#N)c(C(F)(F)F)c6)C(=O)C5(C)C)cn4)CC3)nc2)C(C)(C)C)cc1` [Example 429]: the Dmax (VCaP, read-out: VCaP Dmax (%)) was 26 to 50%. In addition, under setting [1], the DC50 is over 501 nM. For `Cc1ncsc1-c1ccc([C@H](C)NC(=O)[C@@H]2C[C@@H](O)CN2C(=O)[C@@H](NC(=O)COc2ccc(OC3CCN(c4ccc(N5C(=S)N(c6ccc(C#N)c(C(F)(F)F)c6)C(=O)C5(C)C)cc4)CC3)nc2)C(C)(C)C)cc1` [Example 430] the same measures were under 25% and over 501 nM. For `Cc1ncsc1-c1ccc([C@H](C)NC(=O)[C@@H]2C[C@@H](O)CN2C(=O)[C@@H](NC(=O)CNC(=O)c2ccc(Oc3ccc(C(=O)N[C@H]4C(C)(C)[C@H](Oc5ccc(C#N)c(Cl)c5)C4(C)C)cn3)cc2)C(C)(C)C)nc1` [Example 432], the DC50 under setting [2] is over 501 nM. Moreover, the Dmax under setting [3] is under 25%. For `Cc1ncsc1-c1ccc([C@H](C)NC(=O)[C@@H]2C[C@@H](O)CN2C(=O)[C@@H](NC(=O)COc2ccc(OC3CCC(Oc4ccc(C(=O)N[C@H]5C(C)(C)[C@H](Oc6ccc(C#N)c(Cl)c6)C5(C)C)cc4)CC3)nc2)C(C)(C)C)cc1` (stereo partly shown) [Example 433] the same measures were under 50 nM and 51 to 70%. On to `Cc1ncsc1-c1ccc([C@H](C)NC(=O)[C@@H]2C[C@@H](O)CN2C(=O)[C@@H](C(C)C)n2cc(OCCCOCCCCCOc3ccc(N4C(=S)N(c5ccc(C#N)c(C(F)(F)F)c5)C(=O)C4(C)C)cc3)cn2)cc1` [Example 434], for which the DC50 under setting [1] was over 501 nM. Still for that read-out and setting: the value for `Cc1ncsc1-c1ccc([C@H](C)NC(=O)[C@@H]2C[C@@H](O)CN2C(=O)[C@H](C(C)C)n2cc(OCCCOCCCCCOc3ccc(N4C(=S)N(c5ccc(C#N)c(C(F)(F)F)c5)C(=O)C4(C)C)cc3)cn2)cc1` [Example 435] was over 501 nM. Take `Cc1ncsc1-c1ccc([C@H](C)NC(=O)[C@@H]2C[C@@H](O)CN2C(=O)[C@@H](C(C)C)n2cc(OCC3CCN(c4ccc(C(=O)N[C@H]5C(C)(C)[C@H](Oc6ccc(C#N)c(Cl)c6)C5(C)C)cc4)CC3)cn2)cc1` [Example 436]: under setting [2], the DC50 was over 501 nM. The Dmax under setting [3] lay within 51 to 70%. With `Cc1ncsc1-c1ccc([C@H](C)NC(=O)[C@@H]2C[C@@H](O)CN2C(=O)[C@H](C(C)C)n2cc(OCC3CCN(c4ccc(C(=O)N[C@H]5C(C)(C)[C@H](Oc6ccc(C#N)c(Cl)c6)C5(C)C)cc4)CC3)cn2)cc1` [Example 437], the DC50 under setting [2] is over 501 nM. Regarding `Cc1ncsc1-c1ccc([C@H](C)NC(=O)[C@@H]2C[C@@H](O)CN2C(=O)[C@@H](NC(=O)COCCN2CCN(c3ccc(C(=O)N[C@H]4C(C)(C)[C@H](Oc5ccc(C#N)c(Cl)c5)C4(C)C)cc3)CC2)C(C)(C)C)cc1` [Example 438], under setting [2], the DC50 is under 50 nM. Moreover, the Dmax under setting [3] was over 71%. The like results for `Cc1ncsc1-c1ccc([C@H](C)NC(=O)[C@@H]2C[C@@H](O)CN2C(=O)[C@@H](NC(=O)COCC2CCN(c3ccc(C(=O)N[C@H]4C(C)(C)[C@H](Oc5ccc(C#N)c(Cl)c5)C4(C)C)cn3)CC2)C(C)(C)C)cc1` [Example 442] were, in that order, under 50 nM and over 71%.

As to `Cc1nccn1-c1ccc([C@H](C)NC(=O)[C@@H]2C[C@@H](O)CN2C(=O)[C@@H](NC(=O)CNC(=O)c2ccc(Oc3ccc(C(=O)N[C@H]4C(C)(C)[C@H](Oc5ccc(C#N)c(Cl)c5)C4(C)C)cc3)cc2)C(C)(C)C)cc1` [Example 444], under setting [2], the DC50 was under 50 nM. In addition, the Dmax under setting [3] was over 71%. The like results for `Cc1ncsc1-c1ccc([C@H](C)NC(=O)[C@@H]2C[C@@H](O)CN2C(=O)[C@@H](NC(=O)COCCNc2ccc(-c3ccc(C(=O)N[C@H]4C(C)(C)[C@H](Oc5ccc(C#N)c(Cl)c5)C4(C)C)cc3)cn2)C(C)(C)C)cc1` [Example 445] were, in that order, under 50 nM and over 71%. For `Cc1ncsc1-c1ccc(CNC(=O)[C@@H]2C[C@@H](O)CN2C(=O)[C@@H](NC(=O)COCCNc2ccc(-c3ccc(C(=O)N[C@H]4C(C)(C)[C@H](Oc5ccc(C#N)c(Cl)c5)C4(C)C)cc3)cn2)C(C)(C)C)nc1` [Example 446] the same measures were over 501 nM and 26 to 50%.

As for `Cc1ncsc1-c1ccc([C@H](C)NC(=O)[C@@H]2C[C@@H](O)CN2C(=O)[C@@H](NC(=O)COCC2CCN(c3ccc(C(=O)N[C@H]4C(C)(C)[C@H](Oc5ccc(C#N)c(Cl)c5)C4(C)C)cc3)CC2)C(C)(C)C)cc1` [Example 447], the DC50 under setting [2] is under 50 nM. In addition, the Dmax under setting [3] is over 71%. For `Cc1ncsc1-c1ccc([C@H](C)NC(=O)[C@@H]2C[C@@H](O)CN2C(=O)[C@@H](NC(=O)CNC(=O)c2ccc(Oc3ccc(C(=O)N[C@H]4C(C)(C)[C@H](Oc5ccc(C#N)c(Cl)c5)C4(C)C)cn3)cc2)C(C)(C)C)cc1` [Example 448] the same measures were under 50 nM and over 71%. The like results for `Cc1nccn1-c1ccc([C@H](C)NC(=O)[C@@H]2C[C@@H](O)CN2C(=O)[C@@H](NC(=O)COCCOc2ccc(-c3ccc(C(=O)N[C@H]4C(C)(C)[C@H](Oc5ccc(C#N)c(Cl)c5)C4(C)C)cc3)cc2)C(C)(C)C)cc1` [Example 449] were, in that order, under 50 nM and over 71%. In the case of `Cc1ncsc1-c1ccc([C@H](C)NC(=O)[C@@H]2C[C@@H](O)CN2C(=O)[C@@H](NC(=O)COCCOc2ccc(-c3ccc(C(=O)N[C@H]4C(C)(C)[C@H](Oc5ccc(C#N)c(Cl)c5)C4(C)C)cc3)cc2)C(C)(C)C)cc1` [Example 450], the half-maximal degradation concentration (DC50) under setting [2] was under 50 nM. The Dmax under setting [3] is over 71%. Regarding `CN(C)c1ccc(CNC(=O)[C@@H]2C[C@@H](O)CN2C(=O)[C@@H](NC(=O)COCCCOCCCCCOc2ccc(N3C(=S)N(c4ccc(C#N)c(C(F)(F)F)c4)C(=O)C3(C)C)cc2)C(C)(C)C)cn1` [Example 451], for the setting “VCaP, read-out: VCaP Dmax (%)”, the Dmax is under 25%. Further, the DC50 under setting [1] was over 501 nM. For `C[C@H](NC(=O)[C@@H]1C[C@@H](O)CN1C(=O)[C@@H](NC(=O)COCCCOCCCCCOc1ccc(N2C(=S)N(c3ccc(C#N)c(C(F)(F)F)c3)C(=O)C2(C)C)cc1)C(C)(C)C)c1ccc(-c2nccn2C)cc1` [Example 452] the same measures were under 25% and over 501 nM. For `Cc1ncsc1-c1ccc(CNC(=O)[C@@H]2C[C@@H](O)CN2C(=O)[C@@H](NC(=O)COCCCOCCCCCOc2ccc(N3C(=S)N(c4ccc(C#N)c(C(F)(F)F)c4)C(=O)C3(C)C)cc2)C(C)(C)C)nc1` [Example 453] the same measures were under 25% and over 501 nM.
